Here are results for three molecules from EP3019008B1, “USE OF AN ISOPROPANOL-CONTAINING SOLUTION TO COMBAT CALCIVIRIDAE” (Schülke & Mayr GmbH, priority 2013, dated 2015).

Like-named read-outs stand apart in the source and are kept apart here.

Data set [1] has as its system murine norovirus. The data set can be described thus: Modified test EN 1500, hygienic disinfection of the hands of test persons contaminated with virus. The class given is in vivo. The settings on record: 5 test persons. How it is done:
Method B:: Modified test EN 1500 "Hygienic disinfection of the hands"
The test is based upon EN 1500 (practical test method for the hygienic disinfection of the hands).
In the tests, the hands of test persons are contaminated with 3 ml of murine norovirus, namely both the hands of the test persons of the reference group and the hands of the test persons of the test group. A sample is then taken (1 min) before the disinfection. After that, the test persons of each group disinfect their hands with disinfection agent. The test persons of the reference group disinfect twice with 3 ml of a reference product in each case, the reference product being allowed to act for 30 sec and rubbed in after each disinfection. The test persons of the test group instead disinfect twice with 3 ml of the disinfection agent to be tested. After that, a sample is taken […] (1 min), both in the reference group and in the test group.
The test persons of the respective group are then swapped over in a second test.

For data set [2], the system named is murine norovirus. The settings on record: highest concentration tested of 60% by volume, non-living surfaces, Magulski et al.; cited from earlier work.
Data set [3] has as its system RAW cells ATCC TIB-71. Description: Cytotoxicity control (CD50) of the EN 14476 suspension test. More on the design: unit not given beside the values. The settings on record: reference inactivation, PBS. On the procedure: Virus control: The virus titre for the murine norovirus amounted to 7.50 ± 0.47 TCID50 / 0·1 ml and thus to 8.50 ± 0.47 TCID50 / ml. The demonstrable titre reduction thus amounted to ≥ 4.00 lg^10. […] Reference The reduction factor of 0.7% formaldehyde amounted to 2·33 log^10 inactivation after 30 min exposure time and to 3.17 log^10 after 60 min exposure time.

The test system of data set [4] is murine norovirus, strain S 99 Berlin. Description: Quantitative suspension test of virucidal effect according to EN 14476 (low stressing). The settings on record: for log reduction at 0.7 %: Norwalk virus, read-out: reduction factor; for log10-TCID50 / 0·1 ml after ... min murine norovirus: reference inactivation, PBS.
Description: Method A:Quantitative suspension test of virucidal effect according to EN 14476: Murine norovirus (low stressing)
Methodology:EN 14476:2005-04/A1:2006-10 and PrEN 14476:2011: Chemical disinfection agents and antiseptics - Quantitative suspension test of virucidal effect for chemical disinfection agents and antiseptics used in human medicine, Test methods and requirements (phase 2, stage 1)
In order to achieve the concentration of 97%, 0·1 ml of the virus, 0.2 ml of the 5-fold concentrated stressing substance and 9.7 ml of the product are mixed. After the termination of the exposure time, the effect of the disinfection agent is stopped by dilution (or gel filtration) and a series of dilutions in accordance with the progression 1:10/ 1:100 / 1:1,000 etc. is applied in order to determine the residual virus content. The titration is carried out in the microtitre system on 96-well plates.
Titration method: • Virus titration on cells as monolayers in 96-well microtitration plates. 0.5ml of product test solution is diluted with 4.5 ml of ice-cold DMEM + 2% FBS to a dilution of 10^-8. 100 µl of each dilution was pipetted into 6 wells of the microtitration plate. Method of terminating the effect of the product and reducing the cytotoxicity: • Gel filtration with MicroSpin columns and dilution to 10^-4 within 10 sec with ice-cold DMEM + 2% FBS
The TCID50 was calculated in accordance with the method of Spearman and Kärber. m = xk + d/2−d∑pi [formula] • m = negative logarithm of the titre in relation to the test volume • Xk = logarithm of the smallest dilution stage in which all the test objects react positively • d = logarithm of the dilution factor • pi = observed reaction rate
RF = log(viruscontrol)−log(testproduct) [formula] KRF = sqrt(((2Sm(control)))^2 + ((2Sm(residualtitre)))^2) [formula] • KRF = 95% confidence interval of the reduction factor • Sm = standard deviation of the logarithmized titre

As to `CCO` [Ethanol 70% w/w, Ethanol], in data set [1] (2 x 30 s with 3 ml each), the Average after disinfection is 3.02 log TCID50/ml. Besides, in data set [1] (baseline before disinfection), the Average before disinfection is 5.6 log TCID50/ml. This molecule also had an RF in data set [1] (reduction factor, 2 x 30 s with 3 ml each) of 2.58 log TCID50/ml.
On to `CC(C)O` [isopropanol], for which, in data set [2], the “effectiveness compared with ethanol and n-propanol” value was “three decadic levels below the effectiveness of ethanol and n-propanol”.
Take `C=O` [Formaldehyde 0·7% (V/V), Formaldehyde]: the CD50 in data set [3] is given as ≤ 3.5. Besides, the log reduction at 0.7 % in data set [4] (0.5 h) was 2.33; in data set [4] (1 h), 3.17. Also, the “log10-TCID50 / 0·1 ml after ... min murine norovirus” value is reported as 6.33 ± 0.33 log10-TCID50 / 0·1 ml in data set [4] (residual titre after 5 min), 5.67 ± 0.54 log10-TCID50 / 0·1 ml in data set [4] (residual titre after 15 min), 5.17 ± 0.56 log10-TCID50 / 0·1 ml in data set [4] (residual titre after 30 min) and 4.33 ± 0.33 log10-TCID50 / 0·1 ml in data set [4] (residual titre after 60 min).
